Active and inactive are the calls of the source. The rule behind the calls is not given here.
What was measured:
Acetylcholinesterase [1] = biological target: Acetylcholinesterase (Electrophorus electricus, UniProt O42275); assay: Inhibition of Electric eel AChE by Ellman's method
[2] = biological target: Butyrylcholinesterase (Rattus norvegicus) (UniProt Q9JKC1); assay: Inhibition of Rat BuChE at 10 uM by Ellman's method
[3] = biological target: T1, Amine oxidase [flavin-containing] A (Homo sapiens, UniProt P21397); assay: Inhibition of human MAO-A at 10 uM by fluorescence assay
T1 sequence (P21397 whole entry): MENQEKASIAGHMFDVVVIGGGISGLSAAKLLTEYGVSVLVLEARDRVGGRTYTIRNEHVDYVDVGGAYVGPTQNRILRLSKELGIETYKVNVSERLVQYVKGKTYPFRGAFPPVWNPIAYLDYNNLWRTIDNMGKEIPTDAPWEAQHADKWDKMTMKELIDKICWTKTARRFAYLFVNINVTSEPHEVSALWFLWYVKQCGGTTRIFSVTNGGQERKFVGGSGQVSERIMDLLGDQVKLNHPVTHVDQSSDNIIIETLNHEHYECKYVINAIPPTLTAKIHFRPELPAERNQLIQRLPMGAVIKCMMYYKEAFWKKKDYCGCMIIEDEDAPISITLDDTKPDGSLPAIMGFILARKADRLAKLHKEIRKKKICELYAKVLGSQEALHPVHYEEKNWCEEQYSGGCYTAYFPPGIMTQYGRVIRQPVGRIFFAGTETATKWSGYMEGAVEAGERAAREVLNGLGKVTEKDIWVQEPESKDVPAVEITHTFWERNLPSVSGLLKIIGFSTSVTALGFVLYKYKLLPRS

[4] = biological target: T2, Amine oxidase [flavin-containing] B (Homo sapiens, UniProt P27338); assay: Inhibition of human MAO-B by fluorescence assay
T2 sequence (P27338 whole entry): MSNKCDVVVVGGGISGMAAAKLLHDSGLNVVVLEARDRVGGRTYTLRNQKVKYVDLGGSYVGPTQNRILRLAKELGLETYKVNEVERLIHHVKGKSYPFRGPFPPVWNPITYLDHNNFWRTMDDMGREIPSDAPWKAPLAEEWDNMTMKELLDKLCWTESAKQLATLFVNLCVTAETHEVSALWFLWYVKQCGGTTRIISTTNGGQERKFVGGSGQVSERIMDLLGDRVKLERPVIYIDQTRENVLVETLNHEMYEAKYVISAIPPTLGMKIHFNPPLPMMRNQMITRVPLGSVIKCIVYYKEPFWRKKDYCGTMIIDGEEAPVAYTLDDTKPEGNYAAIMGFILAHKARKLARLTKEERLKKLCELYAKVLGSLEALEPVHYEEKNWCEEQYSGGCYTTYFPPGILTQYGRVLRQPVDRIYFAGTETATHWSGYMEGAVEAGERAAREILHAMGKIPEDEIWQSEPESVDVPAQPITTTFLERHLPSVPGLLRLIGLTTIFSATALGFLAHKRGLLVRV

[5] = Antioxidant activity assessed as trolox equivalent of ORAC radical scavenging activity by ORAC-FL assay; assay type: functional
[6] = biological target: Acetylcholinesterase (Electrophorus electricus) (UniProt O42275); assay: Inhibition of Electric eel AChE at 10 uM by Ellman's method
[7] = biological target: T2, Amine oxidase [flavin-containing] B; assay: Inhibition of human MAO-B at 10 uM by fluorescence assay
BV-2 [8] = assay: Antineuroinflammatory activity in mouse BV-2 cells assessed as inhibition of LPS-induced NO production at 0.5 uM after 24 hrs by Griess reagent based assay; assay type: functional
PC-12 [9] = assay: Neuroprotective against H2O2-induced rat PC-12 cell injury assessed as cell viability at 10 uM by MTT assay (reference value: 48.0%); assay type: functional; conditions: read-out: Activity
BV-2 [10] = assay: Inhibition of LPS-induced ROS production in mouse BV-2 cells at 10 uM by DCFH-DA staining based fluorescence analysis; assay type: functional, cell-based
BV-2 [11] = assay: Antineuroinflammatory activity in mouse BV-2 cells assessed as inhibition of LPS-induced NO production at 2.5 uM after 24 hrs by Griess reagent based assay; assay type: functional
BV-2 [12] = assay: Antineuroinflammatory activity in mouse BV-2 cells assessed as inhibition of LPS-induced NO production at 10 uM after 24 hrs by Griess reagent based assay; assay type: functional
BV-2 [13] = assay: Antineuroinflammatory activity in mouse BV-2 cells assessed as inhibition of LPS-induced TNF-alpha production at 0.5 uM after 24 hrs by ELISA; assay type: functional
BV-2 [14] = assay: Antineuroinflammatory activity in mouse BV-2 cells assessed as inhibition of LPS-induced TNF-alpha production at 2.5 uM after 24 hrs by ELISA; assay type: functional
BV-2 [15] = assay: Antineuroinflammatory activity in mouse BV-2 cells assessed as inhibition of LPS-induced TNF-alpha production at 10 uM after 24 hrs by ELISA; assay type: functional
Acetylcholinesterase [16] = biological target: T3, Acetylcholinesterase (Homo sapiens, UniProt P22303); assay: Inhibition of Human AChE by Ellman's method
Acetylcholinesterase [17] = biological target: T3, Acetylcholinesterase; assay: Mixed type inhibition of AChE (unknown origin) by Lineweaver-Burk plot analysis
[18] = Metal chelating activity assessed as Cu2+-compound complex formation at 37.5 uM by UV-visible spectrophotometry
[19] = Inhibition of reactive oxygen species production using Cu-ascorbate redox system by coumarin-3-carboxylic acid dye based fluorescence analysis; assay type: functional
PC-12 [20] = assay: Cytotoxicity against rat PC12 cells assessed as decrease in cell viability at 100 uM by MTT assay; assay type: toxicity, cell-based; conditions: pc-12, 100 µM
PC-12 [21] = assay: Neuroprotective against H2O2-induced rat PC-12 cell injury assessed as cell viability at 25 uM by MTT assay (reference value: 48.0%); assay type: functional; conditions: read-out: Activity
PC-12 [22] = assay: Neuroprotective against H2O2-induced rat PC-12 cell injury assessed as cell viability at 4 uM by MTT assay (reference value: 48.0%); assay type: functional; conditions: read-out: Activity
BV-2 [23] = assay: Cytotoxicity against mouse BV-2 cells at 10 uM by MTT method; assay type: toxicity, cell-based; conditions: bv-2, 10 µM
BV-2 [24] = assay: Cytotoxicity against mouse BV-2 cells at 10 uM in presence of LPS by MTT method; assay type: toxicity, cell-based; conditions: bv-2, 10 µM
BV-2 [25] = assay: Inhibition of LPS-induced ROS production in mouse BV-2 cells assessed as complete reversal at 10 uM by DCFH-DA staining based fluorescence analysis; assay type: functional, cell-based
BV-2 [26] = assay: Inhibition of LPS-induced ROS production in mouse BV-2 cells at 2.5 uM by DCFH-DA staining based fluorescence analysis; assay type: functional, cell-based

Sequence of Butyrylcholinesterase (Rattus norvegicus) (Q9JKC1 as listed by the source): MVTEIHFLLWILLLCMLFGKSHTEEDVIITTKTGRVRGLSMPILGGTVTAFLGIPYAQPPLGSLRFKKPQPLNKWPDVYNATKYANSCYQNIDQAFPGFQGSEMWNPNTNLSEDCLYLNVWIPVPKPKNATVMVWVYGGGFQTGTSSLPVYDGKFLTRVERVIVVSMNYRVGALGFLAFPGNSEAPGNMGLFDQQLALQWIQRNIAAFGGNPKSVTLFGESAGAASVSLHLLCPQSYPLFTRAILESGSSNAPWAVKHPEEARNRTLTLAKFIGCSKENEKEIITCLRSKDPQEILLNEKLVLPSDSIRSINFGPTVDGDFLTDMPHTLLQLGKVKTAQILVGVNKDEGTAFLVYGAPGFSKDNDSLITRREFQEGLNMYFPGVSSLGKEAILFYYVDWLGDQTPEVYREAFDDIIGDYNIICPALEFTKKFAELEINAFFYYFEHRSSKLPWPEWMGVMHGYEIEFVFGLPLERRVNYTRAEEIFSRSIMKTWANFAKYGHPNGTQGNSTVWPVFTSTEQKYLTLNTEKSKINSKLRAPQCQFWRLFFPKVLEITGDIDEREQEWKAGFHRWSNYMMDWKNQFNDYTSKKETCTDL
T3 sequence (P22303 whole entry): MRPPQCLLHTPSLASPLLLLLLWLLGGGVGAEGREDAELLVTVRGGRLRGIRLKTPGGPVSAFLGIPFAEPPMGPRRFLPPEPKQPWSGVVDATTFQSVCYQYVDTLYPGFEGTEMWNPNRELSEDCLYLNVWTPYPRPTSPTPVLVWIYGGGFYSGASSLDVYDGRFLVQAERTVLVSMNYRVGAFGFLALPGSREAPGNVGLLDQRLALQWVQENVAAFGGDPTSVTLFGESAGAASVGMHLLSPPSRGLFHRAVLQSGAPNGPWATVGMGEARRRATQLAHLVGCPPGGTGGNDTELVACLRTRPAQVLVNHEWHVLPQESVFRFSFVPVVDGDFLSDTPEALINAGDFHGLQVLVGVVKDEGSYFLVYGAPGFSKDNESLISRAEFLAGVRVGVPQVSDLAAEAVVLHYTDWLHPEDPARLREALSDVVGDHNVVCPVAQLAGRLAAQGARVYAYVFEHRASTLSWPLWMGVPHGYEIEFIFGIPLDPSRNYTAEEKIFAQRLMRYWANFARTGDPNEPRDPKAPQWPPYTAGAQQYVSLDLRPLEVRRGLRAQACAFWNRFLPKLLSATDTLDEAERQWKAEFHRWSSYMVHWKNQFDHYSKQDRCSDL
Sequence of Acetylcholinesterase (Electrophorus electricus, UniProt O42275) (O42275 whole entry): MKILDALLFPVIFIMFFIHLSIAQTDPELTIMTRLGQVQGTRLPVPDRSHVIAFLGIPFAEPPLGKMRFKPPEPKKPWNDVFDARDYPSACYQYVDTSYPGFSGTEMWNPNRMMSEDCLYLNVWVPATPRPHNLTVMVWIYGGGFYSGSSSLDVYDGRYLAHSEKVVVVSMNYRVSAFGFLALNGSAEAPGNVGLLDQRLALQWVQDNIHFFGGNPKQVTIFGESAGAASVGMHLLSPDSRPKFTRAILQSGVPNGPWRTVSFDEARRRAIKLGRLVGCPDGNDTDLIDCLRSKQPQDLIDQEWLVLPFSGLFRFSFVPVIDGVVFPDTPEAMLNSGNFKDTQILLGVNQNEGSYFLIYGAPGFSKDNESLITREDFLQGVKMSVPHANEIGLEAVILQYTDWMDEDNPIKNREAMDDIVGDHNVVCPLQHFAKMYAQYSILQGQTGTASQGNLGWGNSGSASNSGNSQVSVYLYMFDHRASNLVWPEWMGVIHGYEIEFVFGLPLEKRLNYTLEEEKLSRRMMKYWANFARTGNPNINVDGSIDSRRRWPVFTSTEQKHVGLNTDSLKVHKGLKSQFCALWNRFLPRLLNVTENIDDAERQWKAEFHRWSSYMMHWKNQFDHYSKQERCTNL
Sequence of Acetylcholinesterase (Electrophorus electricus) (O42275 24-633 limits assumed): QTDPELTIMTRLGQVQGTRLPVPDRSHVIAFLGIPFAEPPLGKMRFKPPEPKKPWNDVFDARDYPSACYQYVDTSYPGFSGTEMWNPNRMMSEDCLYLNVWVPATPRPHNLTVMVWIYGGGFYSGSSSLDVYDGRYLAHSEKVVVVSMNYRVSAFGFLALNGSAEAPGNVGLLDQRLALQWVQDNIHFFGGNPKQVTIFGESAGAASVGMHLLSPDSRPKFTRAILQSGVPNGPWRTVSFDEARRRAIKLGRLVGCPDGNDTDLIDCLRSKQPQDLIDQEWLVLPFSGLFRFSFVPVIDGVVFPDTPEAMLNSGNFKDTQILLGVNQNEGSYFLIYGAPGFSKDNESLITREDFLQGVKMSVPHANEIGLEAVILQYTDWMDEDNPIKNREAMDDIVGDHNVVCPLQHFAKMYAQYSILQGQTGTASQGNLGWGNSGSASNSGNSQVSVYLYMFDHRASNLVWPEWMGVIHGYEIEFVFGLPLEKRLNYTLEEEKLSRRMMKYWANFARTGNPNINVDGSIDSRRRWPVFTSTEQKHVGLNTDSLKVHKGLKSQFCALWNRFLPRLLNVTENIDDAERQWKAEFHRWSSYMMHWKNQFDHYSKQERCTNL

Compound: CCCCC1OC(=O)c2cc(OCc3cccc(CN4CCOCC4)c3O)ccc21 (stereo not drawn)
- IC50 (Acetylcholinesterase [1]): 22400 nM
- inhibition [2]: 5.8%
- inhibition at 10 µM [3]: 18.4%
- IC50 [4]: 7630 nM
- Activity [5]: 2.14

Compound: CCCCC1OC(=O)c2cc(OCc3cccc(CN4CCN(C)CC4)c3O)ccc21 (stereo not drawn)
- inhibition [6]: 29.4%
- inhibition [2]: < 5%
- inhibition at 10 µM [3]: 12.5%
- inhibition at 10 µM [7]: 32.3%
- Activity [5]: 2.33

Compound: CCCCC1OC(=O)c2cc(OCc3cccc(CN(CC)CC)c3O)ccc21 (stereo not drawn)
- IC50 (Acetylcholinesterase [1]): 20900 nM
- inhibition [2]: < 5%
- inhibition at 10 µM [3]: 20.4%
- inhibition at 10 µM [7]: 5.2%
- Activity [5]: 2.02

Compound: CCCCC1OC(=O)c2cc(OCc3ccccc3O)ccc21 (stereo not drawn)
- inhibition [6]: 20.3%
- inhibition [2]: < 5%
- inhibition at 10 µM [3]: 30.3%
- IC50 [4]: 2070 nM
- Activity [5]: 1.03

Compound: CCCCC1OC(=O)c2ccccc21 (racemic) [RAC-3-N-BUTYLPHTHALIDE]
- inhibition at 0.5 µM (BV-2 [8]): 13.4%
- Activity [5]: 0.21
- viability at 10 µM (PC-12 [9]): 64.1%
- inhibition (BV-2 [10]): Active
- inhibition at 2.5 µM (BV-2 [11]): 22.9%
- inhibition at 10 µM (BV-2 [12]): 37.2%
- inhibition at 0.5 µM (BV-2 [13]): 15.2%
- inhibition at 2.5 µM (BV-2 [14]): 27.6%
- inhibition at 10 µM (BV-2 [15]): 43.7%

Compound: CCCCC1OC(=O)c2cc(OCc3ccc(CN(CC)Cc4ccccc4)c(O)c3)ccc21 (stereo not drawn)
- IC50 (Acetylcholinesterase [1]): 20500 nM
- inhibition [2]: 5.6%
- inhibition at 10 µM [3]: 14.8%
- IC50 [4]: 1960 nM
- Activity [5]: 1.15

Compound: CCCCC1OC(=O)c2cc(OCc3cccc(CN4CCCCC4)c3O)ccc21 (stereo not drawn)
- IC50 (Acetylcholinesterase [1]): 14500 nM
- inhibition [2]: 14.2%
- inhibition at 10 µM [3]: 20%
- inhibition at 10 µM [7]: 12.8%
- Activity [5]: 1.84

Compound: CCCCC1OC(=O)c2cc(OCc3ccc(CN4CCCCC4)c(O)c3)ccc21 (stereo not drawn)
- inhibition at 0.5 µM (BV-2 [8]): 30.4%
- IC50 (Acetylcholinesterase [1]): 87 nM
- IC50 (Acetylcholinesterase [16]): 41 nM
- inhibition [2]: < 5%
- inhibition (Acetylcholinesterase [17]): Active
- inhibition at 10 µM [3]: 18.1%
- IC50 [4]: 300 nM
- Activity [5]: 1.86
- Activity [18]: Active
- inhibition [19]: Active
- Activity (PC-12 [20]): Toxic
- viability at 25 µM (PC-12 [21]): 80.2%
- viability at 10 µM (PC-12 [9]): 71.1%
- viability at 4 µM (PC-12 [22]): 56.3%
- Activity (BV-2 [23]): Non-Toxic
- Activity (BV-2 [24]): Non-Toxic
- inhibition (BV-2 [25]): Active
- inhibition (BV-2 [26]): Active
- inhibition at 2.5 µM (BV-2 [11]): 43.5%
- inhibition at 10 µM (BV-2 [12]): 58.9%
- inhibition at 0.5 µM (BV-2 [13]): 32.7%
- inhibition at 2.5 µM (BV-2 [14]): 47.8%
- inhibition at 10 µM (BV-2 [15]): 63.2%

Compound: CCCCC1OC(=O)c2cc(OCc3ccc(CN(CC)CC)c(O)c3)ccc21 (stereo not drawn)
- IC50 (Acetylcholinesterase [1]): 640 nM
- IC50 (Acetylcholinesterase [16]): 350 nM
- inhibition [2]: 8.1%
- inhibition at 10 µM [3]: 26.3%
- IC50 [4]: 6810 nM
- Activity [5]: 1.53

Reference: ChEMBL document CHEMBL5154748, “Discovery of novel 3-butyl-6-benzyloxyphthalide Mannich base derivatives as multifunctional agents against Alzheimer's disease” (Bioorg Med Chem, 2022)
